Reference: article PMC4540712, “Development of a clickable bimodal fluorescent/PET probe for in vivo imaging” (EJNMMI Research, 2015)
Starred links: 1 amine or outer side, 2 acyl side, 3 side chain; linkers in the order of their positions; H or OH if unused. Non-standard residues stand in square brackets, D forms with d. Residues, ends and D or L forms follow the SMILES beside them. *: point of attachment. BODIPY(FL) = CC1=CC(C)=[N+]2C1=Cc1ccc(CCC(=O)*)n1[B-]2(F)F; X1 = O=C(CCc1cn(CCOCCOCCOCCN[*:1])nn1)[*:2]; Sta = CC(C)C[C@H](N)[C@@H](O)CC(=O)O; X2 = O=C(CN1CCC(N[*:1])CC1)[*:2]

Legend:
stability in human serum = format: in vitro ADME; conditions: 37 °C, after 60 min of incubation, time points 0, 15, 30, 45, 60 min, fluorescence read-out
Procedure: (§1) The binding of BODIPY-BBN 5 toward GRP receptor overexpressing PC-3 cells was evaluated in confocal live-cell imaging (Fig. 4a). After incubation of BODIPY-BBN 5 (10 nM, 30 min), cells were treated with blue whole cell stain (5 min) and washed with PBS. […] We also confirmed the binding affinity of BODIPY-BBN 5 using [^125I-Tyr^4]bombesin in a competitive binding assay (Fig. 4b). […] We then determined the stability of our imaging tracer in human serum (37 °C) at pre-determined time points showing >90 % intact fluorescent imaging agent after 60 min of incubation (Additional file 1: Figure S6).
Figure S6: Percent intact fluorescent ^19F-BODIPY-BBN in human serum at different time points (0, 15, 30, 45, and 60 min) after incubation at 37 °C.

[1] = target: T1, GRP receptor overexpressing PC-3 cells (Homo sapiens, UniProt P30550); experiment: confocal live-cell imaging of uptake and blocking in PC-3 cells; format: cell-based; conditions: 37 °C, 30 min
T1 construct: host or cells: PC-3 (human prostate cancer cell line)
Procedure: To determine BODIPY-BBN uptake in vitro, PC-3 cells (1.0 × 10^4 per well) were seeded in a two-well chamber slide (Nunc™ Lab-Tek™ II Chamber Slide™ System) containing growth media (1 mL) and incubated at 37 °C for 24 h. To study the uptake of BODIPY-BBN, PC-3 cells were incubated with 5 (10 nM in PBS, 37 °C for 30 min). At the same time blocking studies were performed. PC-3 cells were pre-incubated with RM2 (1000 nM in PBS, 37 °C for 5 min) before incubation with BODIPY-BBN (10 nM in PBS, 37 °C for 30 min). After washing with media (1.0 mL), blue whole cell stain was added and incubated at room temperature for 5 min. The cells were washed with PBS (3 × 1.0 mL), living cells were imaged using an inverted confocal microscope (Leica TCS SP5 II), and data were analyzed with Fiji.
as §1

T1 sequence (P30550 whole entry): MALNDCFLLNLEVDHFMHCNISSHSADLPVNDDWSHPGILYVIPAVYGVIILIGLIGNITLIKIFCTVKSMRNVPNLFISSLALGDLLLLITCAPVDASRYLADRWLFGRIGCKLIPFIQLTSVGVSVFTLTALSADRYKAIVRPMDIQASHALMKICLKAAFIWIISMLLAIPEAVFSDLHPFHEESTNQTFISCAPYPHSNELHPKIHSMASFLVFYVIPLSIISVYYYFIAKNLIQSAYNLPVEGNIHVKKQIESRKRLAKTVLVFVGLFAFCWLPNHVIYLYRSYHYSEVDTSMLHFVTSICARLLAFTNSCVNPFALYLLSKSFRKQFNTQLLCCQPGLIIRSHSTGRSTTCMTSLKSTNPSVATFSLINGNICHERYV

binding in confocal live-cell imaging ([1]; PC-3 cells, 10 nM in PBS, green fluorescence): antagonist-specific binding
Compound: Cc1cc(C)n2c1C=C1C=CC(CCC(=O)NCCOCCOCCOCCn3cc(CCC(=O)NC4CCN(CC(=O)N[C@H](Cc5ccccc5)C(=O)N[C@@H](CCC(N)=O)C(=O)N[C@@H](Cc5c[nH]c6ccccc56)C(=O)N[C@@H](C)C(=O)N[C@H](C(=O)NCC(=O)N[C@@H](Cc5c[nH]cn5)C(=O)N[C@@H](CC(C)C)[C@@H](O)CC(=O)N[C@@H](CC(C)C)C(N)=O)C(C)C)CC4)nn3)=[N+]1[B-]2(F)F [BODIPY-BBN 5] ({BODIPY(FL)}-[X1][X2][dF]QWAVGH[Sta]L-NH2)
intact fluorescent imaging agent in human serum (stability in human serum): > 90%
fluorescent signal after blocking (GRP receptor specificity) ([1]; PC-3 cells pre-incubated with 100-fold excess of unlabeled GRP receptor antagonist (1000 nM, 5 min), then 10 nM probe): complete suppression of green fluorescent signal
